Among the data in patent US8354423B2, “Insecticidal spironindane derivatives” (priority 2003, dated 2013) are melting point values, retold here.

With `O=C(N/N=C1\CC2(CCN(C/C=C/c3ccc(Cl)cc3)CC2)c2ccccc21)Nc1ccc(OC(F)(F)F)cc1`, the melting point (commonly the temperature, or range, at which the solid turns liquid) turned out to be 225 °C.
